Results on one compound are retold here after US20240050735A1, “SYSTEMS AND METHODS FOR TREATING AND INHIBITING WOUND INFECTIONS” (priority 2020, published 2024).

Series [1] has as its system MRSA biofilm-infected porcine skin wound. Briefly: Ex vivo anti-biofilm efficacy, standard plate counting assay. Format: cell-based, Methicillin-resistant S. aureus (MRSA) USA300. The method, then:
Same as previous tests, an ex vivo MRSA biofilm-infected porcine skin wound model was used here. First the biofilm treatment efficacy was tested when different current intensities were used with a fixed VAN loading concentration at 1 mg mL^−1. After a single treatment for 1 hour, wound tissues were incubated for 24 hours in a 37° C. incubator to allow VAN to take effect. After incubation, tissue samples were collected and evaluated for bacterial count using the standard plate counting assay for MRSA colony. […] Treating the biofilm with no current for 1 hour (only VAN diffusion) or a low current of 0.5 mA cm^−2 for 1 hour induced a minimal MRSA count reduction to 10^9.8 CFU g^−1 and 10^9.6 CFU g^−1, respectively. When 19 mA cm^−2, 38 mA cm^−2, and 75 mA cm^−2 were applied, MRSA count was further reduced to 10^8.6 CFU g^−1, 10^8.3 CFU g^−1 and 10^7.6 CFU g^−1, respectively (see FIGS. 5A and 5F). […] Because 75 mA cm^−2 had better anti-biofilm efficacy than other conditions, it was selected for the following tests.
The fetal pig skin samples (approximately 30×30 mm) were immersed in 10% (v/v) bleach for 5 minutes after hair removal. Then, skin samples were sterilized in 70% ethanol for 30 minutes. The surface of skin sample was further cleaned by 10% povidone-iodine and 70% isopropanol to prevent contamination. A 6-mm disposable biopsy punch was used to create an excisional wound. Samples were put into sterile 10-cm petri-dishes filled with sterile PBS (6 mL). The wound was then inoculated with 1×10^8 CFU mL^−1 MRSA bacteria solution (20 μL). The bacteria were allowed to grow in a 37° C. Heratherm™ compact microbiological incubator (ThermoFischer Scientific™, Waltham, Mass., USA) for 48 hours to form mature biofilms.
The HIC-based biofilm treatment system 100 embodiment shown in FIG. 18 was used to test electrical debridement treatment of high-intensity current on ex vivo MRSA biofilm infected skin wounds. The MRSA biofilm infected skin wound was sandwiched between anode and cathode HIC-based devices (i.e., the working device 104 and the counter device 106). To evaluate the anti-biofilm effect of high current intensity only, PBS (5 mL) was filled in both drug/buffer chamber 114 and PBS chamber 122 and then 0.5 mA cm^−2, 19 mA cm^−2, 38 mA cm^−2, and 75 mA cm^−2 was applied for 1 hour, respectively. The device/skin wound contact area was 0.502 cm^2. Skin samples were collected by 8-mm biopsy punch immediately after test or at 24 hours after testing. To evaluate the biofilm thickness before and after different treatments, samples were embedded in tissue freezing medium (OCT) and sectioned at 8 μm. After being imaged in microscope, the thickness of biofilms after different treatments were measured using ImageJ software. To evaluate the colony-forming unit (CFU) counts per gram of MRSA from infected skin wounds, samples were homogenized in PBS (10 mL) and diluted with PBS, and then transferred to standard plate counting assay. The bactericidal efficacy was calculated as follows:
The HIC-based biofilm treatment system 100 embodiment shown in FIG. 18 was used to evaluate combined biofilm treatment efficacy of electrical debridement and VAN delivery. To evaluate the anti-biofilm treatment efficacy of current intensity, 0 mA cm^−2 (passive diffusion) to 75 mA cm^−2 was applied on the HIC-based biofilm treatment system 100 with 1 mg mL^−1 VAN loaded in HIC-based working device 104, respectively. […] To further enhance the anti-biofilm efficacy of electrical debridement and high concentration delivery of VAN, two treatments were applied, named protocol #1 and protocol #2. Protocol #1 applied two treatments (treatment: 75 mA cm^−2 for 1 hour, 1 mg mL^−1 VAN loaded in HIC-based working device 104) separated by 6 hours. Protocol #2 applied two treatments (treatment same as Protocol #1) separated by 24 hours. CFU was counted 24 hours after last treatment using the standard spread counting assay. The bactericidal efficacy was calculated accordingly. […]

A further series deals with S. aureus biofilms. The following applies: cited from earlier work.
The mark [2] stands for this setting: 75 mA cm^−2 1 hour, 1 mg mL^−1 VAN, 24 hours after.

Molecules are shown by their SMILES. Where a name gives a salt, the structure may show the parent alone.

For `CN[C@H](CC(C)C)C(=O)N[C@H]1C(=O)N[C@@H](CC(N)=O)C(=O)N[C@H]2C(=O)N[C@H]3C(=O)N[C@H](C(=O)N[C@H](C(=O)O)c4cc(O)cc(O)c4-c4cc3ccc4O)[C@H](O)c3ccc(c(Cl)c3)Oc3cc2cc(c3O[C@@H]2O[C@H](CO)[C@@H](O)[C@H](O)[C@H]2O[C@H]2C[C@](C)(N)[C@H](O)[C@H](C)O2)Oc2ccc(cc2Cl)[C@H]1O` [VAN, Vancomycin hydrochloride], the bactericidal efficacy in series [1] (0.5 mA cm^−2 1 hour, 1 mg mL^−1 VAN, 24 hours after) is reported as 4.4±2.76 times; in series [1] (19 mA cm^−2 1 hour, 1 mg mL^−1 VAN, 24 hours after), 57.8±50.30 times; in series [1] (38 mA cm^−2 1 hour, 1 mg mL^−1 VAN, 24 hours after), 81.4±13.34 times; in series [1] (setting [2]) it was 452.8±115.32 times; in series [1] (75 mA cm^−2 1 hour, 3 mg mL^−1 VAN loading), 112.6±13.58 times; in series [1] (75 mA cm^−2 1 hour, 5 mg mL^−1 VAN loading) it was 5.1±3.80 times. For the same compound, the bactericidal efficacy in series [1] (75 mA cm^−2 1 hour, 10 mg mL^−1 VAN loading) is 9.7±2.92 times; in series [1] (passive diffusion 1 hour, 1 mg mL^−1 VAN, 24 hours after) it was 2.7±2.06 times. In series [1] (setting [2]), this compound registered a bactericidal rate of 99.8%. For the same compound, the “MRSA bacterial count reduction in wound tissue” value in series [1] (single 1 hour treatment, 75 mA cm^−2, 1 mg mL^−1 VAN) worked out at 2.6 login scales. The “diffusion coefficient in S. aureus biofilms” value in the series with S. aureus biofilms (2012 study) is reported as 0.2 μm 2 s^−1. In addition, in the series on S. aureus biofilms (S. aureus biofilms), the “slower than its diffusion in water” value is recorded as “more than 1,000 times”.
